Structures can show the parent of a compound that is named as a salt. Where two headings read alike, the source gives them in different places.
Columns and labels:
Test in all cases: biochemical
[1] = target: T1, α-1A adrenoreceptor (rat submaxillary gland) (Rattus norvegicus, UniProt P43140); assay type: binding; details: read-out: Radioligand Binding (Ki, nM) 1A (Rat)
T1 sequence (P43140 1-466): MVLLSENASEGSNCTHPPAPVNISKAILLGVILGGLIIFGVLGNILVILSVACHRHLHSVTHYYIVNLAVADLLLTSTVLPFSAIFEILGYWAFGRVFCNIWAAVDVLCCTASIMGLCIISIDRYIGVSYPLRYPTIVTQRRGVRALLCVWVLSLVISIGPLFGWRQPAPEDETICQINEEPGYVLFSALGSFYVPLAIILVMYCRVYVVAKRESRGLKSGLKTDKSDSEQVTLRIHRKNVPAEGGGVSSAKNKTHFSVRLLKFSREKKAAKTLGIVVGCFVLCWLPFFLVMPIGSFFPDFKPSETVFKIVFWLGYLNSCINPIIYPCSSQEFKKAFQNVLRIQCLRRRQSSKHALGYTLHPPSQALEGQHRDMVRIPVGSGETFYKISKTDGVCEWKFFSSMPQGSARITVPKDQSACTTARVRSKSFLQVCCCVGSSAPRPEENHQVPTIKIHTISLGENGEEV
Procedure: Additionally, binding affinity against the pharrnacologically defined α-1A adrenoreceptor (rat submaxillary gland) was measured.
(§1) On the fifth day of culture, growth medium was removed from cells grown in roller bottles, and the cells were washed twice with PBS (Sigma, 120 mM NaCl, 2.7 mM KCl, 10 mM Na2HPO4-NaH2PO4, pH = 7.4). Cells were detached from the roller bottles by incubating for 15 minutes at 37 °C in a Tris-EDTA solution (10 mM Tris, 100 mM NaCl, 1 mM EDTA, pH = 7.4). The cell suspension from each roller bottle was decanted into tared centrifuge tubes and kept on ice. An aliquot of each cell suspension was generally taken for cell counting. Cells were centrifuged at 3000 X G for 5 min at 2-4 °C, washed with PBS and recentrifuged. The supernatant was decanted and the pellet weighed to determine the wet weight of cells. Cells were washed a final time in 40 vol 5 mM Tris-HCl, 5 mM EDTA, pH = 7.7, and centrifuged at 40,000 X G for 10 minutes. Cells were homogenized in 10 mL of 50 mM Tris-HCl, 5 mM EDTA (pH = 7.4) and diluted to 40 mL/tube. Homogenates were centrifuged at 40,000 X G for 10 minutes. The supernatant was decanted and the pellets rehomogenized in 50 mM Tris-HCl (pH = 7.4) and centrifuged as before. The supernatant was decanted and the homogenate resuspended in 6.25 volumes (per gram wet weight) of 50 mM Tris-HCl and aliquots of the pooled homogenates frozen in liquid N2 and stored at -70 °C until the time of assay. Rat submaxillary glands were used for α-1A adrenoreceptors and were prepared essentially as described (Michel, A. D., Loury, D. N. and Whiting, R. L., Brit. J. Pharmacol. 98: 83-889 (1989)).
(§2) Receptor binding assays for α-1 adrenoreceptors were performed essentially as described by Greengrass and Bremner (Eur. J. Pharmacol. 55: 323-326 (1979)). […] Radioactivity was determined by standard liquid scintillation techniques. Data were analyzed as previously described (Hancock, A. A., Kyncl, J. J., Martin, Y. C. and DeBernardis, J. F., J. Receptor Res. 8: 23-46 (1988)).

[2] = target: T2, α-1b adrenoreceptor (Mesocricetus auratus, UniProt P18841); assay type: binding, hamster; details: read-out: Radioligand Binding (Ki, nM) 1b (Hamster)
T2 sequence (P18841 1-515): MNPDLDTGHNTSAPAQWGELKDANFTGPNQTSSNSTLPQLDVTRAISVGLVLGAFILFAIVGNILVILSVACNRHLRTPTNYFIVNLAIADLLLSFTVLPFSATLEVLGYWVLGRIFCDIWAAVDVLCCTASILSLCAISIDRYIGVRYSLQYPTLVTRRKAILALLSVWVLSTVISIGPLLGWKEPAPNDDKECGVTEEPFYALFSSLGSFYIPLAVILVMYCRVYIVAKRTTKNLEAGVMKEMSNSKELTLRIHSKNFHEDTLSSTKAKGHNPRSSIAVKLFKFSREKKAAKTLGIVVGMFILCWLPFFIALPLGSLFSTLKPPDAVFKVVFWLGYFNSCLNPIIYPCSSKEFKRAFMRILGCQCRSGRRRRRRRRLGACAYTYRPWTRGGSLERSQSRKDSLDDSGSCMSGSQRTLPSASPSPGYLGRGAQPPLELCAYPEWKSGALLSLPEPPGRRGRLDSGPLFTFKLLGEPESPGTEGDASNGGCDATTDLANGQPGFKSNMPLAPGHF
From the text: (§3) The cDNA clones encoding the α-1 adrenoreceptors (α-1a, α-1b, and α-1d) were obtained from TULCO (Triangle Universities Licensing Consortium, Research Triangle Park, NC) and inserted into the eukaryotic expression vector SnaB30. In this vector, expression of the adrenoreceptor gene is under the transcriptional control of an SV40 early promoter. Positive drug selection is provided by a neomycin-resistance gene. Mouse fibroblast cells (LTK) were transfected with the α1 expression plasmids and grown in Dulbecco's modified Eagle's medium (DMEM) containing 10% fetal calf serum and 30 µM G418. Stable G418-resistant parental lines were generated, with successful expression of adrenoreceptor protein monitored using radioligand binding techniques. Stable single cell clones derived from the parental lines were screened in adrenoreceptor binding assays to identify clones having high adrenoreceptor density. Roller bottle cultures of the cloned lines were used to provide cell membranes for subsequent adrenoreceptor binding characterization studies. A cell line containing the SnaB30 vector expressing the human erythropoietin gene served as a negative control.
(§4) For adrenoreceptor binding assays, large scale membrane preparations were utilized in which 6 million cells were seeded into small (450 cm^2) Corning tissue culture roller bottles. 200 mL of DMEM containing 10% fetal calf serum and 300 µM G418 were added to each roller bottle. A 95% air / 5% CO2 gas mixture (sterile) was injected into each roller bottle prior to sealing. The bottles were then incubated at 37 °C on a roller rack for 5 days. Cells were re-fed with fresh medium after 3 days in culture.
as §1, §2

[3] = target: T3, α-1d adrenoreceptor (Rattus norvegicus, UniProt P23944); assay type: binding; details: read-out: Radioligand Binding (Ki, nM) 1d (Rat)
T3 sequence (P23944 1-561): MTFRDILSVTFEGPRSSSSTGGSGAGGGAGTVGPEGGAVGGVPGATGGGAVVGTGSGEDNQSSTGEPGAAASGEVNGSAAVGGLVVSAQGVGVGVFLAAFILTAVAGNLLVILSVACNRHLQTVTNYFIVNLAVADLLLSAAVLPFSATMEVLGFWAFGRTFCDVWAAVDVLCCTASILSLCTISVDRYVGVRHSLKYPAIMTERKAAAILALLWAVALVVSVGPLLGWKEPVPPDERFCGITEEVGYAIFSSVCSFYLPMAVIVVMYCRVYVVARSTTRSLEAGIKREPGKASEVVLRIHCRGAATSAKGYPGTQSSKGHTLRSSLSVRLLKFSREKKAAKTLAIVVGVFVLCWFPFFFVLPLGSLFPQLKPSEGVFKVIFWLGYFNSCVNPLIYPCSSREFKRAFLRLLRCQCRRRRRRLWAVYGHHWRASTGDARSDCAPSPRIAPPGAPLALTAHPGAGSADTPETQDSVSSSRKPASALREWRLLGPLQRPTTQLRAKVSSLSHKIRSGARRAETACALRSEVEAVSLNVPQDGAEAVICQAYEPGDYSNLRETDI
From the text: as §3, §4, §1, §2

[4] = target: T4, α-1a adrenoreceptor (Bos taurus, UniProt P18130); assay type: binding, bovine; details: read-out: Radioligand Binding (Ki, nM) 1a (Bovine)
T4 sequence (P18130 1-466): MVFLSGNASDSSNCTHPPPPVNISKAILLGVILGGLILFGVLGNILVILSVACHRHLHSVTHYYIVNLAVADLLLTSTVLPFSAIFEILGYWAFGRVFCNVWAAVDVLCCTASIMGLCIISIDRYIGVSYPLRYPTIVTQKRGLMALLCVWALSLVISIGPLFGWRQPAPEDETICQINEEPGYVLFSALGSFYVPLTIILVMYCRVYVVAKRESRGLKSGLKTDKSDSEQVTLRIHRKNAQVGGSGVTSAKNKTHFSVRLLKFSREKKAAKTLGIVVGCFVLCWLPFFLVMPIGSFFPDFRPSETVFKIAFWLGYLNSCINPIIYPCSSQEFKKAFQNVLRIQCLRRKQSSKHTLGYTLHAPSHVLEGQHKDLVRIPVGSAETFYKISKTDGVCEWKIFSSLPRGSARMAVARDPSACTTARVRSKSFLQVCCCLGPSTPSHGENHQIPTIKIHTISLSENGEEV
From the text: as §3, §4, §1, §2

[5] = [3H]-prazosin radioligand, rat submaxillary gland membranes
[6] = [3H]-prazosin radioligand, cloned receptor in LTK cell membranes

## COc1cccc2c1[C@@H]1CCN(CCCn3c(=O)[nH]c4c(sc5cccnc54)c3=O)C[C@H]1CO2 [Example 92, 3-[3-((4aS,10bR)-trans-10-Methoxy-1,3,4,4a,5,10b-hexahydro-2H-[1]-benzopyrano[3,4-c]pyrido-3-yl)propyl]-pyrido[2',3':4,5]thieno[3,2-d]pyrimidine-2,4(1H,3H)-dione dihydrochloride]
[1]; [5]
  Ki: 3.85 nM
[2]; [6]
  Ki: 45.1 nM
[3]; [6]
  Ki: 18.5 nM
[4]; [6]
  Ki: 2.2 nM

## COc1cccc2c1[C@@H]1CN(CCCCn3c(=O)[nH]c4c(sc5ncc(-c6ccsc6)nc54)c3=O)C[C@@H]1CO2 [Example 57, 3-[4-((3aR,9bR)-cis-9-Methoxy-1,2,3,3a,4,9b-hexahydro-[1]-benzopyrano[3,4-c]pyrrol-2-yl)butyl]-8-(3-thienyl)-pyrazino[2',3':4,5]thieno[3,2-d]pyrimidine-2,4(1H,3H)-dione dihydrochloride]
[1]; [5]
  Ki: 0.682 nM
[2]; [6]
  Ki: 19.3 nM
[3]; [6]
  Ki: 0.507 nM
[4]; [6]
  Ki: 0.078 nM

## COc1cccc2c1[C@@H]1CN(CCCCCn3c(=O)[nH]c4c(sc5ccccc54)c3=O)C[C@@H]1CO2 [Example 24, 3-[5-((3aR,9bR)-cis-9-Methoxy-1,2,3,3a,4,9b-hexahydro-[1]-benzopyrano[3,4-c]pyrrol-2-yl)pentyl]-[1]benzthieno[3,2-d]pyrimidine-2,4(1H,3H)-dione hydrochloride]
[1]; [5]
  Ki: 5.37 nM
[2]; [6]
  Ki: 5.56 nM
[3]; [6]
  Ki: 4.51 nM
[4]; [6]
  Ki: 0.616 nM

## COc1cccc2c1[C@@H]1CN(CCCCn3c(=O)[nH]c4c(sc5ncc(-c6cccnc6)nc54)c3=O)C[C@@H]1CO2 [Example 61, 3-[4-((3aR,9bR)-cis-9-Methoxy-1,2,3,3a,4,9b-hexahydro-[1]-benzopyrano[3,4-c]pyrrol-2-yl)butyl]-8-(3-pyridyl)-pyrazino[2',3':4,5]thieno[3,2-d]pyrimidine-2,4(1H,3H)-dione dihydrochloride]
[1]; [5]
  Ki: 0.152 nM
[2]; [6]
  Ki: 8.85 nM
[3]; [6]
  Ki: 0.336 nM
[4]; [6]
  Ki: 0.15 nM

## COc1cccc2c1[C@H]1CCN(CCCCn3c(=O)[nH]c4c(sc5ncc(Cl)nc54)c3=O)C[C@@H]1CO2 [Example 96, 3-[4-((4aR,10bS)-trans-10-Methoxy-1,3,4,4a,5,10b-hexahydro-2H-[1]-benzopyrano[3,4-c]pyrido-3-yl)butyl]-8-chloro-pyrazino[2',3':4,5]thieno[3,2-d]pyrimidine-2,4(1H,3H)-dione dihydrochloride]
[1]; [5]
  Ki: 0.816 nM
[2]; [6]
  Ki: 10.4 nM
[3]; [6]
  Ki: 0.816 nM
[4]; [6]
  Ki: 0.211 nM

## O=c1[nH]c2c(sc3cccnc32)c(=O)n1CCCCN1C[C@@H]2COc3ccccc3[C@H]2C1 (racemic) [Example 71, 3-[4-((±)-trans-1,2,3,3a,4,9b-hexahydro-[1]-benzopyrano[3,4-c]pyrrol-2-yl)butyl]-pyrido[2',3':4,5]thieno[3,2-d]pyrimidine-2,4(1H,3H)-dione hydrochloride]
[1]
  Ki: 0.065 nM
[2]
  Ki: 0.634 nM
[3]
  Ki: 0.169 nM
[4]
  Ki: 0.068 nM

## COc1cccc2c1[C@H]1CN(CCCCn3c(=O)[nH]c4c(sc5nccnc54)c3=O)C[C@@H]1CO2 [Example 12, 3-[4-((3aR,9bS)-trans-9-Methoxy-1,2,3,3a.4,9b-hexahydro-[1]-benzopyrano[3,4-c]pyrrol-2-yl)butyl]-pyrazino[2',3':4,5]thieno[3,2-d]pyrimidine-2,4(1H,3H)-dione dihydrochloride]
[1]; [5]
  Ki: 0.52 nM
[2]; [6]
  Ki: 5.25 nM
[3]; [6]
  Ki: 2.17 nM
[4]; [6]
  Ki: 0.375 nM

## COc1cccc2c1[C@H]1CCN(CCCn3c(=O)[nH]c4c(sc5cccnc54)c3=O)C[C@@H]1CO2 [Example 93, 3-[3-((4aR,10bS)-trans-10-Methoxy-1,3,4,4a,5,10b-hexahydro-2H-[1]-benzopyrano[3,4-c]pyrido-3-yl)propyl]-pyrido[2',3':4,5]thieno[3,2-d]pyrimidine-2,4(1H,3H)-dione dihydrochloride]
[1]; [5]
  Ki: 4.04 nM
[2]; [6]
  Ki: 3.67 nM
[3]; [6]
  Ki: 11.5 nM
[4]; [6]
  Ki: 1.2 nM

Source: patent publication EP0942911B1, “BENZOPYRANOPYRROLE AND BENZOPYRANOPYRIDINE ALPHA-1 ADRENERGIC COMPOUNDS” (Abbott Laboratories, priority 1996, dated 1998)
